What was measured:
Assay in all cases: relative viability (nuclei count vs DMSO), 5 days (fraction); higher = more cells survive
[1] = compound: C1COCCN1C2=NC(=NC3=C2OC4=C3C=CC=N4)C5=CC(=CC=C5)NC(=O)C6=CN=C(C=C6)N + CC1(C)CCC(c2ccc(Cl)cc2)=C(CN2CCN(c3ccc(C(=O)NS(=O)(=O)c4ccc(N[C@H](CCN5CCOCC5)CSc5ccccc5)c(S(=O)(=O)C(F)(F)F)c4)cc3)CC2)C1 [Navitoclax] (partner 0.5 µM)
In short: (§1)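 A single step with final 0.05% Triton X-100, 1% formaldehyde and 1 ug/ml Hoechst fixed the cells and stained nuclei 5 days after treatment. Lung cancer cell lines in 1536-well plates had been treated by pin tool the day after seeding with one drug alone or a fixed anchor-drug dose plus five library-drug doses (not always all listed) in √10 steps, and nuclei were counted on 4× images. Relative viability is the ratio of nuclei in treated wells to nuclei in vehicle wells, taken as the median of duplicate plates.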

[2] = compound: C1COCCN1C2=NC(=NC3=C2OC4=C3C=CC=N4)C5=CC(=CC=C5)NC(=O)C6=CN=C(C=C6)N + CS(=O)(=O)CCNCc1ccc(-c2ccc3ncnc(Nc4ccc(OCc5cccc(F)c5)c(Cl)c4)c3c2)o1 [Lapatinib] (partner 2 µM)
In short: as §1

SGI-1776 + Vorinostat = compound: CN1CCC(CNc2ccc3ncc(-c4cccc(OC(F)(F)F)c4)n3n2)CC1 [SGI-1776] + O=C(CCCCCCC(=O)Nc1ccccc1)NO [Vorinostat] (partner 1 µM)
In short: as §1

Entinostat + Dasatinib = compound: Nc1ccccc1NC(=O)c1ccc(CNC(=O)OCc2cccnc2)cc1 [Entinostat] + Cc1nc(Nc2ncc(C(=O)Nc3c(C)cccc3Cl)s2)cc(N2CCN(CCO)CC2)n1 [Dasatinib] (partner 0.075 µM)
In short: as §1

| Cell Line | relative viability ([1]; first compound 0.02 µM) | relative viability ([1]; first compound 0.06325 µM) | relative viability ([1]; first compound 0.2 µM) | relative viability ([1]; first compound 0.6325 µM) | relative viability ([1]; first compound 2 µM) | relative viability ([2]; first compound 0.02 µM) | relative viability ([2]; first compound 0.06325 µM) | relative viability ([2]; first compound 0.2 µM) | relative viability ([2]; first compound 0.6325 µM) | relative viability ([2]; first compound 2 µM) | relative viability (SGI-1776 + Vorinostat; first compound 0.08 µM) | relative viability (SGI-1776 + Vorinostat; first compound 0.8 µM) | relative viability (SGI-1776 + Vorinostat; first compound 2.53 µM) | relative viability (SGI-1776 + Vorinostat; first compound 8 µM) | relative viability (Entinostat + Dasatinib; first compound 0.02 µM) | relative viability (Entinostat + Dasatinib; first compound 0.06325 µM) | relative viability (Entinostat + Dasatinib; first compound 0.2 µM) | relative viability (Entinostat + Dasatinib; first compound 0.6325 µM) | relative viability (Entinostat + Dasatinib; first compound 2 µM) |
| --- | --- | --- | --- | --- | --- | --- | --- | --- | --- | --- | --- | --- | --- | --- | --- | --- | --- | --- | --- |
| 201T | 1.2 | 1.23 | 1.14 | 1.12 | 1.1 | 0.957 | 1.02 | 0.984 | 1.04 | 1.01 | 0.977 | 1.01 | 0.98 | 0.946 | 0.651 | 0.559 | 0.58 | 0.421 | 0.313 |
| A549 | 1.37 | 1.22 | 1.13 | 1.18 | 0.668 | 1.07 | 0.925 | 0.911 | 0.921 | 0.468 |  |  |  |  |  |  |  |  |  |
| A-427 | 1 | 0.964 | 0.812 | 0.864 | 0.835 | 1.06 | 1.04 | 0.91 | 1.1 | 0.677 | 0.861 | 0.9 | 0.882 | 0.815 | 0.707 | 0.679 | 0.614 | 0.525 | 0.442 |
| ABC-1 |  |  |  |  |  | 1.38 | 1.14 | 1.07 | 1.21 | 0.871 | 1.02 | 1.14 | 1.01 | 0.702 | 0.47 | 0.751 | 0.663 | 0.51 | 0.486 |
| BEN | 0.0527 | 0.058 | 0.0742 | 0.0452 | 0.0457 | 0.765 | 0.702 | 0.744 | 0.673 | 0.588 | 0.643 | 0.618 | 0.584 | 0.543 | 0.318 | 0.341 | 0.308 | 0.264 | 0.179 |
| CAL-12T | 1.06 | 1.41 | 1.23 | 1.11 | 0.883 | 0.663 | 0.701 | 0.632 | 0.604 | 0.472 | 0.794 | 0.876 | 0.723 | 0.699 | 0.571 | 0.427 | 0.375 | 0.295 | 0.218 |
| COR-L23 | 1.14 | 1.1 | 1.05 | 1.13 | 0.666 | 0.946 | 1.26 | 1.15 | 1.24 | 0.451 | 0.581 | 0.387 | 0.41 | 0.327 | 0.45 | 0.444 | 0.398 | 0.22 | 0.112 |
| COR-L 105 | 0.805 | 0.754 | 0.69 | 0.531 | 0.584 | 0.391 | 0.318 | 0.34 | 0.346 | 0.289 | 0.921 | 0.885 | 0.935 | 0.642 | 0.337 | 0.407 | 0.36 | 0.344 | 0.232 |
| Calu-6 | 1.03 | 1.01 | 0.846 | 0.809 | 0.384 | 1.3 | 1.1 | 1.12 | 0.98 | 0.742 |  |  |  |  |  |  |  |  |  |
| ChaGo-K-1 | 0.96 | 0.863 | 0.619 | 1.01 | 0.839 |  |  |  |  |  | 0.788 | 0.825 | 0.797 | 0.73 | 0.709 | 0.554 | 0.671 | 0.526 | 0.553 |
| EBC-1 | 0.397 | 0.368 | 0.32 | 0.377 | 0.234 | 0.178 | 0.212 | 0.216 | 0.17 | 0.268 |  |  |  |  |  |  |  |  |  |
| EKVX | 1.17 | 0.939 | 0.944 | 0.805 | 0.684 | 0.189 | 0.181 | 0.221 | 0.215 | 0.207 | 0.854 | 0.778 | 0.717 | 0.829 | 0.656 | 0.51 | 0.492 | 0.435 | 0.343 |
| EMC-BAC-2 | 1.21 | 1.28 | 1.26 | 1.12 | 0.984 | 0.932 | 0.931 | 0.94 | 0.897 | 0.733 | 0.551 | 0.593 | 0.424 | 0.298 | 0.349 | 0.318 | 0.298 | 0.177 | 0.109 |
| EPLC-272H | 1.23 | 1.06 | 1.13 | 1.08 | 0.893 | 0.886 | 1.02 | 0.674 | 0.825 | 0.53 | 0.468 | 0.505 | 0.545 | 0.249 | 0.364 | 0.417 | 0.289 | 0.195 | 0.2 |
| H3255 | 0.54 | 0.553 | 0.533 | 0.421 | 0.467 | 0.241 | 0.238 | 0.23 | 0.238 | 0.293 | 0.904 | 0.919 | 0.815 | 0.718 | 0.397 | 0.37 | 0.27 | 0.32 | 0.265 |
| HARA | 1.2 | 1.17 | 1.21 | 1.19 | 0.897 | 0.749 | 0.699 | 0.803 | 0.707 | 0.502 | 0.497 | 0.515 | 0.559 | 0.438 | 0.299 | 0.256 | 0.256 | 0.273 | 0.168 |
| HCC-15 | 0.678 | 0.786 | 0.684 | 0.605 | 0.452 | 0.865 | 0.883 | 0.811 | 0.818 | 0.511 | 0.856 | 0.853 | 0.726 | 0.722 | 0.664 | 0.749 | 0.595 | 0.33 | 0.178 |
| HCC-44 | 1.08 | 1.15 | 1.08 | 1 | 0.571 | 1.1 | 1.07 | 1.09 | 1.06 | 0.631 | 1.16 | 1.05 | 1.12 | 1.01 |  |  |  |  |  |
| HCC-78 | 0.709 | 0.728 | 0.906 | 0.769 | 0.645 | 0.671 | 0.792 | 0.767 | 0.762 | 0.72 | 0.456 | 0.44 | 0.501 | 0.339 | 0.432 | 0.39 | 0.316 | 0.277 | 0.291 |

— the supplement of paper PMC10307832
